# Where a name gives a salt, the structure may show the parent alone.
# What was measured:
# Assay type in all cases: in vivo, human
# [1] = test system: refractory migraine (migraine without aura); experiment: Case Study 2: refractory migraine without aura; conditions: for Response of refractory migraine to earlier therapy: CORGARD in combination with PROZAC or CELEXA or trazodone
# Experimental: The patient was a person with a lifelong history of refractory migraine (migraine without aura), averaging 8 migraines per month. […] The patient was started on topiramate at 25 mg/day, with dosage increasing to 75 mg/day. Simultaneously, the beta-blocker, CORGARD dosage was decreased to 20 mg/day, with CELEXA at 20 mg/day also continued.
# [2] = test system: severe refractory migraine with and without aura; experiment: Case Study 3: severe refractory migraine with and without aura
# Experimental: The patient was a person with a twenty-year history of severe refractory migraine with and without aura. […] The patient was started on topiramate at 50 mg/day increasing to 100 mg in the morning and 100 mg in the evening, in combination with INDERAL at 160 mg/day. […] After about 6 months, the patient was prescribed EFFEXOR XR (vanlafaxine HCl) at 37 mg/day, an increased topiramate dose of 125 mg in the morning and 150 mg in the evening, and 160 mg/day INDERAL.
# [3] = test system: persistent daily headache with migraine features; experiment: Case Study 1: persistent daily headache with migraine features; conditions: one patient; for Response of persistent daily headache to earlier therapy: before topiramate
# Text: The patient was a person with persistent daily headache with migraine features.
compound,measurement,setting,value
"CN(C)CCCC1(c2ccc(F)cc2)OCc2cc(C#N)ccc21 (stereo not shown) [CELEXA, citalopram HCl]",Response of refractory migraine to earlier therapy,[1],no response
"CC(C)(C)NCC(O)COc1cccc2c1CC(O)C(O)C2 (stereo not shown) [CORGARD, nadolol]",Response of refractory migraine to earlier therapy,[1],no response
"CCCC(CCC)C(=O)O [DEPAKOTE, valproic acid]",Response of severe refractory migraine,[2]; earlier therapy,modest symptomatic response
same,"Tolerability, reason for discontinuation",[2]; earlier therapy,discontinued due to weight gain
"CC(C)NCC(O)COc1cccc2ccccc12.Cl (stereo not shown) [INDERAL, propranolol HCl]",Response of severe refractory migraine,[2]; INDERAL at 120 mg/day in combination with tricyclic antidepressants,Only modest response
same,Response of persistent daily headache to earlier therapy,[3],failed to respond
"CN1CCC(=C2c3ccccc3C=Cc3ccccc32)CC1 [PERIACTIN, cyproheptadine HCl]",Response of persistent daily headache to earlier therapy,[3],failed to respond
"CNCCC(Oc1ccc(C(F)(F)F)cc1)c1ccccc1 (stereo not shown) [PROZAC, fluoxetine HCl]",Response of refractory migraine to earlier therapy,[1],no response
CNS(=O)(=O)CCc1ccc2[nH]cc(C3CCN(C)CC3)c2c1 [naratriptan],Response of severe headaches,[3],did however respond
CNCCC=C1c2ccccc2CCc2ccccc21 [nortriptyline],Response of persistent daily headache to earlier therapy,[3],failed to respond
Cc1cc2nc3c(=O)[nH]c(=O)nc-3n(C[C@H](O)[C@H](O)[C@H](O)CO)c2cc1C [riboflavin],Effect of supplementation,[1]; 400 mg/day,no improvement
CNS(=O)(=O)Cc1ccc2[nH]cc(CCN(C)C)c2c1 [sumatriptan],Response of severe refractory migraine,[2]; repeated frequent use,symptomatic response
O=c1n(CCCN2CCN(c3cccc(Cl)c3)CC2)nc2ccccn12 [trazodone],Response of refractory migraine to earlier therapy,[1],no response
